Results published in the supplement of paper PMC10307832.

What was measured:
Assay in all cases: relative viability (nuclei count vs DMSO), 5 days (fraction); higher = more cells survive
[1] = compound: C(C(=O)C(=O)O)Br [Bromopyruvate] + C[C@@H](Oc1cc(-c2cnn(C3CCNCC3)c2)cnc1N)c1c(Cl)ccc(F)c1Cl [Crizotinib] (partner 1 µM)
Summary of the method: (§1)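 Dosing by pin tool came one day after lung cancer cell lines were seeded in 1536-well plates, using either one drug or a fixed anchor-drug dose plus five library-drug doses (not always all listed) in √10 steps. After 5 days, nuclei were counted on 4× images. Relative viability is treated-well nuclei count divided by vehicle-well nuclei count, and values are medians of duplicate plates.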

Bicalutamide + Dasatinib = compound: CC(O)(CS(=O)(=O)c1ccc(F)cc1)C(=O)Nc1ccc(C#N)c(C(F)(F)F)c1 [Bicalutamide] + Cc1nc(Nc2ncc(C(=O)Nc3c(C)cccc3Cl)s2)cc(N2CCN(CCO)CC2)n1 [Dasatinib] (partner 0.075 µM)
Summary of the method: as §1

[2] = compound: CC(O)(CS(=O)(=O)c1ccc(F)cc1)C(=O)Nc1ccc(C#N)c(C(F)(F)F)c1 [Bicalutamide] + CCNC(=O)c1noc(-c2cc(C(C)C)c(O)cc2O)c1-c1ccc(CN2CCOCC2)cc1 [Luminespib] (partner 0.01 µM)
Summary of the method: as §1

[3] = compound: CC(O)(CS(=O)(=O)c1ccc(F)cc1)C(=O)Nc1ccc(C#N)c(C(F)(F)F)c1 [Bicalutamide] + CC1(C)CCC(c2ccc(Cl)cc2)=C(CN2CCN(c3ccc(C(=O)NS(=O)(=O)c4ccc(N[C@H](CCN5CCOCC5)CSc5ccccc5)c(S(=O)(=O)C(F)(F)F)c4)cc3)CC2)C1 [Navitoclax] (partner 0.5 µM)
Summary of the method: as §1

Row | Cell Line | relative viability ([1]; first compound 1 µM) | relative viability ([1]; first compound 3.162 µM) | relative viability ([1]; first compound 10 µM) | relative viability ([1]; first compound 31.62 µM) | relative viability ([1]; first compound 100 µM) | relative viability (Bicalutamide + Dasatinib; first compound 0.08 µM) | relative viability (Bicalutamide + Dasatinib; first compound 0.253 µM) | relative viability (Bicalutamide + Dasatinib; first compound 0.8 µM) | relative viability (Bicalutamide + Dasatinib; first compound 2.53 µM) | relative viability ([2]; first compound 0.08 µM) | relative viability ([2]; first compound 0.253 µM) | relative viability ([2]; first compound 0.8 µM) | relative viability ([2]; first compound 2.53 µM) | relative viability ([3]; first compound 0.08 µM) | relative viability ([3]; first compound 0.253 µM) | relative viability ([3]; first compound 0.8 µM) | relative viability ([3]; first compound 2.53 µM)
1 | NCI-H460 | 0.771 | 0.921 | 1.09 | 0.919 | 0.714 | 0.498 | 0.44 | 0.646 | 0.483 | 0.0289 | 0.0405 | 0.0453 | 0.035 | 1.13 | 1.1 | 1.39 | 1.22
2 | NCI-H520 | 0.716 | 0.707 | 0.737 | 0.685 | 0.673 | 0.192 | 0.195 | 0.185 | 0.137 | 0.232 | 0.22 | 0.274 | 0.205 | 0.97 | 1.1 | 1.16 | 1.13
3 | NCI-H596 | 0.98 | 1 | 1.07 | 0.952 | 1.17 | 0.576 | 0.599 | 0.798 | 0.598 | 1.08 | 0.945 | 1.28 | 1.14 | 1.03 | 0.847 | 1.24 | 1.15
4 | NCI-H647 | 1.05 | 1.18 | 1.25 | 1.16 | 1.1 | 0.187 | 0.173 | 0.208 | 0.139 | 0.126 | 0.114 | 0.255 | 0.112 | 1.15 | 1.09 | 1.46 | 1.18
5 | NCI-H727 | 0.996 | 0.89 | 0.844 | 0.739 | 0.83 | 0.376 |  | 0.383 | 0.653 | 0.366 |  | 0.378 | 0.339 | 0.457 | 0.415 | 0.405 | 0.373
6 | NCI-H838 | 0.959 | 0.881 | 0.825 | 0.871 | 0.854 | 0.319 | 0.303 | 0.392 | 0.272 | 0.282 | 0.226 | 0.331 | 0.309 | 1.1 | 1.07 | 1.25 | 0.854
7 | NCI-H1355 | 1.05 | 1.06 | 1.18 | 1.06 | 0.983 | 0.753 | 0.639 | 0.797 | 0.729 | 0.797 | 0.694 | 0.787 | 0.818 | 1.06 | 0.919 | 0.928 | 0.983
8 | NCI-H1437 | 0.923 | 0.981 | 0.914 | 0.938 | 0.92 | 0.412 | 0.406 | 0.466 | 0.447 | 1.17 | 1.15 | 1.1 | 1.05 | 1.1 | 1.17 | 1.14 | 1.11
9 | NCI-H1650 | 0.898 | 1.24 | 0.942 | 0.922 | 0.56 | 0.34 | 0.245 | 0.381 | 0.301 | 0.181 | 0.165 | 0.171 | 0.196 | 1.31 | 1.19 | 1.16 | 1.22
10 | NCI-H1651 | 0.876 | 0.83 | 0.919 | 0.847 | 0.796 | 0.449 | 0.322 | 0.471 | 0.451 | 0.767 | 0.67 | 0.918 | 0.874 | 0.89 | 0.957 | 0.956 | 0.951
11 | NCI-H1666 | 0.993 | 0.907 | 0.963 | 1.18 | 0.857 | 0.915 | 0.789 | 0.767 | 0.731 | 1.04 | 0.989 | 1.03 | 0.961 | 0.939 | 1.14 | 0.889 | 0.93
12 | NCI-H1734 | 0.67 | 0.68 | 0.803 | 0.67 | 0.659 | 0.454 | 0.4 | 0.561 | 0.367 | 0.193 | 0.174 | 0.212 | 0.186 | 0.862 | 0.719 | 1.13 | 0.786
13 | NCI-H1755 | 0.973 | 0.797 | 0.884 | 0.881 | 1 | 0.397 | 0.382 | 0.446 | 0.351 | 0.475 | 0.58 | 0.435 | 0.292 | 0.98 | 0.956 | 1.02 | 0.961
14 | NCI-H1792 | 1.11 | 1.03 | 1.09 | 0.878 | 0.984 | 0.84 | 0.509 | 1.06 | 0.856 | 0.411 |  | 0.571 | 0.236 | 0.5 | 0.619 | 0.77 | 0.674
15 | NCI-H1915 | 0.836 | 0.862 | 0.885 | 0.923 | 0.878 | 0.317 | 0.29 | 0.301 | 0.252 | 0.761 | 0.69 | 0.934 | 0.762 | 0.815 | 0.76 | 0.804 | 0.812
16 | NCI-H1944 | 1.08 | 1.09 | 1.12 | 1.07 | 1.14 | 0.233 | 0.203 | 0.216 | 0.208 | 0.759 | 0.66 | 0.845 | 0.779 | 1.04 | 1.08 | 1.08 | 1.03
17 | NCI-H1975 | 0.95 | 0.955 | 1 | 0.981 | 0.955 | 0.396 | 0.376 | 0.462 | 0.334 | 0.294 | 0.23 | 0.33 | 0.177 | 0.951 | 1.05 | 1.23 | 1.12
